Read-outs that look alike come from different tables or passages of the source.
Assays:
Assay in all cases: biochemical
Conditions in all cases: fluorogenic MCA-peptide substrate, pH 7.5, room temperature
Recombinant human MMP-13 = target: T1, Recombinant human MMP-13 (Homo sapiens, UniProt P45452)
T1 construct: made in house; host or cells: baculovirus / insect cells
Experimental: (§1) Recombinant human MMP-1, MMP-2, MMP-9, MMP-13, and were used in this assay. These enzymes were prepared in the Assignee's es following usual laboratory procedures. Specifics for preparing and e enzymes can be found in the scientific literature describing these See, e.g., Enzyme Nomenclature (Academic Press, San Diego, Calif., d the citations therein).
The expressed proenzyme was first purified over a heparin agarose column, and then over a chelating zinc chloride column. The proenzyme was then activated by APMA for use in the assay.
(§2) The enzyme substrate was a methoxycoumarin-containing polypeptide having the following sequence:
(§3) MCA-ProLeuGlyLeuDpaAlaArgNH2
(§4) Here, “MCA” is methoxycoumarin and “Dpa” is 3-(2,4-dinitrophenyl)-L-2,3-diaminopropionyl alanine.
(§5) These solutions were then compared to a control (which contained equal amount of DMSO/buffer solution, but no hydroxamate compound) using Microfluor™ White Plates (Dynatech, Chantilly, Va.). Specifically, The MMPs were activated with APMA or trypsin. […] The control likewise was incubated at room temperature in separate plates with the MMP and 4 uM of the MMP substrate. […] Inhibition was measured as a reduction in fluorescent intensity as a function of inhibitor concentration using a Perkin Elmer (Norwalk, Conn.) L550 plate reader. The IC50's were then calculated from these measurements.

Recombinant human MMP-1 = target: T2, Recombinant human MMP-1 (Homo sapiens, UniProt P03956)
T2 construct: made in house; host or cells: transfected HT-1080 cells
T2 sequence (P03956 100-469): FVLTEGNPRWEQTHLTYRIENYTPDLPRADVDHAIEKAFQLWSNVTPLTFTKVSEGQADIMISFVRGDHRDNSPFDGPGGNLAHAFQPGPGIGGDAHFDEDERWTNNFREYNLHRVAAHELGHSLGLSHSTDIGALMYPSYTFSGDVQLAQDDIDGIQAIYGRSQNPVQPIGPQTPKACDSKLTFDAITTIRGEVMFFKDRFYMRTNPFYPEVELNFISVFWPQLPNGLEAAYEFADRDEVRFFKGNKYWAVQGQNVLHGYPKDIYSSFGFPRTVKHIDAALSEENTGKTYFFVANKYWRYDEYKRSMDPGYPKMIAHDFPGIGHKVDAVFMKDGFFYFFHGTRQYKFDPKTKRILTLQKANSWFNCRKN
Experimental: as §1
The MMP-1 was obtained from MMP-1 expressing transfected HT-1080 cells provided by Dr. Harold Welgus of Washington University in St. Louis, Mo. The MMP-1 was activated using 4-aminophenylmercuric acetate (APMA), and then purified over a hydroxamic acid column.
as §2, §3, §4, §5

Recombinant human MMP-2 = target: T3, Recombinant human MMP-2 (Homo sapiens, UniProt P08253)
T3 construct: made in house
T3 sequence (P08253 110-660): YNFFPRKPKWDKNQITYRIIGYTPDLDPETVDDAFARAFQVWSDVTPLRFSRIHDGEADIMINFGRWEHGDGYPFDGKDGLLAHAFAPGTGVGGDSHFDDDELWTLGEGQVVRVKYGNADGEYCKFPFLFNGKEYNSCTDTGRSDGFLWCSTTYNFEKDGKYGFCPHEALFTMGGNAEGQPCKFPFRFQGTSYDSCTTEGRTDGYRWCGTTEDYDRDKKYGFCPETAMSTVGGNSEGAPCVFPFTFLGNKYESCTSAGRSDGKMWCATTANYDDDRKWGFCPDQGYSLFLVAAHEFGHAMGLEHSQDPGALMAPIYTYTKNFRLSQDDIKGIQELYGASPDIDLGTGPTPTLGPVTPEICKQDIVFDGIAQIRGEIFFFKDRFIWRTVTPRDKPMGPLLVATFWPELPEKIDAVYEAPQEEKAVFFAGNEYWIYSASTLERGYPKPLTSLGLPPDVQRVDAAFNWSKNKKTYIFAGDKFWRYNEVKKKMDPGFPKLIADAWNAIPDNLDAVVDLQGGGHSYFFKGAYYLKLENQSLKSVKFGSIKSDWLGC
Experimental: as §1
The MMP-2 was obtained from MMP-2 expressing transfected cells provided by Dr. Gregory Goldberg of Washington University.
as §2, §3, §4, §5

Compound	IC50 (Recombinant human MMP-13; read-out: MMP-13 IC50) [nM]	IC50 (Recombinant human MMP-1) [nM]	IC50 (Recombinant human MMP-2; read-out: MMP-2 IC50) [nM]	IC50 (Recombinant human MMP-13; MMP-13 IC50(nM)) [nM]	IC50 (Recombinant human MMP-2; MMP-2 IC50(nM)) [nM]
O=C(c1ccc(CC2CCC2)cc1)C1CCN(c2ccc(S(=O)(=O)C3(C(=O)NO)CCN(C4CC4)CC3)cc2)CC1 [Example 196]	1	> 10000	750		
O=C(c1ccc(Br)cc1)C1CCN(c2ccc(S(=O)(=O)C3(C(=O)NO)CCOCC3)cc2)CC1 [Example 378]	0.3	> 10000	28.4		
O=C(c1ccc(Br)cc1)C1CCN(c2ccc(S(=O)(=O)C3(C(=O)NO)CCN(C4CC4)CC3)cc2)CC1 [Example 190]	0.2	> 10000	23.1		
O=C(c1ccc(CC2CCCC2)cc1)C1CCN(c2ccc(S(=O)(=O)C3(C(=O)NO)CCOCC3)cc2)CC1 [Example 379]	0.6	> 10000	1270		
O=C(CN1CCN(C(=O)C2CCN(c3ccc(S(=O)(=O)C4(C(=O)NO)CCOCC4)cc3)CC2)CC1)N1CCCC1 [Example 16]	42.5	> 10000	4800		
CCc1ccc(C(=O)C2CCN(c3ccc(S(=O)(=O)C4(C(=O)NO)CCN(CC)CC4)cc3)CC2)cc1 [Example 222]	1	> 10000	197		
CCN1CCC(C(=O)NO)(S(=O)(=O)c2ccc(N3CCC(C(=O)c4ccc(N(C)C)cc4)CC3)cc2)CC1 [Example 168]	2.1	> 10000	2180		
CCC(CC)Cc1ccc(C(=O)C2CCN(c3ccc(S(=O)(=O)C4(C(=O)NO)CCN(CCOC)CC4)cc3)CC2)cc1 [Example 230]	0.1	> 10000	745		
COCCN1CCC(C(=O)NO)(S(=O)(=O)c2ccc(N3CCC(C(=O)c4ccc(CC(C)C)cc4)CC3)cc2)CC1 [Example 218]	0.2	> 10000	75.7		
COCCN1CCC(C(=O)NO)(S(=O)(=O)c2ccc(N3CCC(C(=O)c4ccc(OC5CCCC5)cc4)CC3)cc2)CC1 [Example 227]	1.4	> 10000	132		
Cc1cc(C(=O)C2CCN(c3ccc(S(=O)(=O)C4(C(=O)NO)CCN(C5CC5)CC4)cc3)CC2)ccc1Cl [Example 214]	1.7	> 10000	160		
COc1ccc(C2CCN(c3ccc(S(=O)(=O)C4(C(=O)NO)CCN(C5CC5)CC4)cc3)CC2)cc1 [Example 260]	0.4	> 10000	1.2		
C=CCN1CCC(C(=O)NO)(S(=O)(=O)c2ccc(N3CCC(C(=O)c4ccc(C)c(C)c4)CC3)cc2)CC1 [Example 158]	2.4	> 10000	218		
O=C(C1CCN(c2ccc(S(=O)(=O)C3(C(=O)NO)CCOCC3)cc2)CC1)N1CCN(c2ncccn2)CC1 [Example 23]		> 10000		6.4	1600
O=C(NO)C1(S(=O)(=O)c2ccc(N3CCC(c4ccc(Cl)cc4)CC3)cc2)CCN(C2CC2)CC1 [Example 270]	1.1	> 10000	1.9		
CCc1ccc(C(=O)C2CCN(c3ccc(S(=O)(=O)C4(C(=O)NO)CCN(CCOC)CC4)cc3)CC2)cc1 [Example 212]	0.2	> 10000	110		
CCN1CCC(C(=O)NO)(S(=O)(=O)c2ccc(N3CCC(C(=O)c4ccc(CCCC(C)C)cc4)CC3)cc2)CC1 [Example 236]	1.5	> 10000	1850		

From patent US20040209914A1, “Aromatic sulfone hydroxamic acids and their use as protease inhibitors” (priority 2000, published 2004)
